pKi: −log10 of the molar value. Where two headings read alike, the source gives them in different places.
What was measured:
[1] = biological target: human stromelysin (Sln) (Homo sapiens, UniProt P08254); test: In vitro MMP inhibition assay (hydrolysis of fluorogenic MCA peptide substrate), stromelysin; type: biochemical
Procedure: The catalytic domain of human stromelysin (Sln) was obtained by expression and purification of a C-terminally truncated prostromelysin-1 from E. coli host BL21 (see Marcy et al. Biochem., 1991, 30, 6476). The subsequent activation of the mature form (Sln) was completed with 2 mM APMA for 1 hour at 37° C., followed by separation using a sizing column.
(§1) Assays were performed in assay buffer (50 mM Tricine pH 7.5, 200 mM sodium chloride, 10 mM calcium chloride, 0.5 mM zinc acetate containing 2% dimethyl sulfoxide (DMSO)) once the substrate and inhibitor were diluted into it. Stock solutions of inhibitors were prepared in 100% DMSO. Stock solutions of the substrate were prepared in 100% DMSO at a concentration of 6 mM.
(§2) The assay method was based on the hydrolysis of MCA-Pro-Leu-Gly-Leu-DPA-Ala-Arg-NH2 (American Peptide Co.) at 37° C. (see Knight, C. G. et al., FEBS, 1992, 296, 263-266). The fluorescence changes were monitored with a Perkin-Elmer LS-50B fluorimeter using an excitation wavelength of 328 nm and an emission wavelength of 393 nm. The substrate concentration used in the assays was 10 μM. The inhibitor was diluted into the assays from a solution in 100% DMSO, and controls substituted an equal volume of DMSO so that the final DMSO concentration from inhibitor and substrate dilution in all assays was 2%. […] Proper determination of steady-state rates of substrate cleavage required assay lengths of 60 minutes to allow for complete equilibration of the enzyme-inhibitor complex.
(§3) The Km for the MCA peptide substrate with the matrix metalloproteinases is quite high and exceeds its solubility under assay conditions. Consequently, the apparent Ki (Ki,app) was determined to describe the strength of inhibition. However, in this case, Ki,app would be essentially equal to Ki since [S]<<Km. For the determination of Ki,app, the concentration of the inhibitor was varied at a constant and low concentration of substrate and the steady-state rates of fluorescence change determined. In most cases absorptive quench due to the presence of ligand was not observed. For slow-binding inhibitors, onset of inhibition curves were collected for at least 45 minutes so that equilibrium was established. Steady-state rates of fluorescence change were obtained by fitting a curve to an equation for a single exponential decay containing a linear phase. The fitted value of the linear phase was taken as the steady-state rate. The steady-state rates were fitted to the Michaelis equation describing competitive inhibition by non-linear methods. Data resulting from tight-binding inhibition was analyzed, and Ki,app determined by fitting the data to the tight-binding equation of Morrison (Biochem. Biophys. Acta, vol. 185, pp. 269-286 (1969)) by non-linear methods.
(§4) All Ki values are in nM units.

[2] = biological target: human progelatinase A (GelA) (Homo sapiens, UniProt P08253); test: In vitro MMP inhibition assay (hydrolysis of fluorogenic MCA peptide substrate), gelatinase A; type: biochemical
human progelatinase A (GelA), sequence (P08253 110-446 limits assumed): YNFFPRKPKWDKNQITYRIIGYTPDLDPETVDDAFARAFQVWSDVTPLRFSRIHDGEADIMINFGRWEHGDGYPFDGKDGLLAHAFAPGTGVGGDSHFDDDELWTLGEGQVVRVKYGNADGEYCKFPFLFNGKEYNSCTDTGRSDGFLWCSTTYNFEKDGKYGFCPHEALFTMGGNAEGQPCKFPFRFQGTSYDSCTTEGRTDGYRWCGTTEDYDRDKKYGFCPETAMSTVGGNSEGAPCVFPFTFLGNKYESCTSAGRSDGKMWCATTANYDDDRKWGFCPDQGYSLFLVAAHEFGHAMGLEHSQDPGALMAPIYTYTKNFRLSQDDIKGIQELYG
Procedure: The catalytic and fibronectin-like portion of human progelatinase A (GelA) was expressed as a fusion protein with ubiquitin in E. Coli. Assays were carried out on autocatalytically activated material.
as §1, §2, §3, §4

[3] = Table 1, Ki,app, MCA peptide substrate 10 μM, 37° C., pH 7.5, 2% DMSO, read-out: Sin Ki
[4] = Table 1, Ki,app, MCA peptide substrate 10 μM, 37° C., pH 7.5, 2% DMSO, read-out: Gel A

human stromelysin (Sln), sequence (P08254 100-272 limits assumed): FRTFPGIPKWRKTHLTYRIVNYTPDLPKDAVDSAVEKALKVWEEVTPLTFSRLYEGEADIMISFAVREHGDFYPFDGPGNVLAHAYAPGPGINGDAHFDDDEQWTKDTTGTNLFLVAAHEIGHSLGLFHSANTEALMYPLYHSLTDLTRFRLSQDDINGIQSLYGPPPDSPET

pKi ([1]; Table 2, comparative example, read-out: STROMELYSIN Ki) | pKi ([2]; Table 2, comparative example, gelatinase A, read-out: GELATINASE Kj) | pKi [1, 3] | pKi [2, 4] | SMILES
5.47 | 5.46 | – | – | Cc1ccc(S(=O)(=O)NCC(=O)NO)cc1 [Compound 13, N-hydroxy-2-(toluene-4-sulfonylamino)acetamide, reference compound]
– | – | 5.53 | 7.32 | CC(C)(SCc1ccccn1)[C@@H](NS(=O)(=O)c1ccc(Oc2ccc(C(F)(F)F)cc2)cc1)C(=O)O [Example 3j, N-[4-(4-(trifluoromethyl)phenoxy)benzenesulfonyl]--S--[(pyrid-2-yl)methyl]-D-penicillamine]
– | – | 5.67 | 7.47 | Cn1ccnc1CSC(C)(C)[C@@H](NS(=O)(=O)c1ccc(Oc2ccc(Br)cc2)cc1)C(=O)O [Example 3o]
– | – | 3.46 | 6.05 | CC(C)(O)[C@@H](NS(=O)(=O)c1ccc(Oc2ccc(Br)cc2)cc1)C(=O)O [Example 3s, N-[4-(4-Bromophenoxy)benzenesulfonyl]-D--(β-hydroxy)valine]
– | – | 6.12 | 7.57 | Cc1cc(CSC(C)(C)[C@@H](NS(=O)(=O)c2ccc(Oc3ccncc3)cc2)C(=O)O)no1 [Example 4b, S--[(5-Methylisoxazol-3-yl)methyl]--N--[4(pyrid-4-yl)oxybenzenesulfonyl]-D-penicillamine]
– | – | 4.98 | 6.78 | COC(=O)CCSC(C)(C)[C@@H](NS(=O)(=O)c1ccc(Oc2ccc(F)cc2)cc1)C(=O)O [Example 7, S--[2-(Methoxycarbonyl)ethyl]--N--[4-(4-fluorophenoxy)benzenesulfonyl]-D-penicillamine]
– | – | 4.90 | 6.43 | CC(C)(SCCO)[C@@H](NS(=O)(=O)c1ccc(Oc2ccc(F)cc2)cc1)C(=O)O [Example 8a, S--[2-Hydroxyethyl]--N--[4-(4-fluorophenoxy)benzenesulfonyl]-D-penicillamine]
– | – | 5.24 | 6.48 | CC(C)(SCCC(N)=O)[C@@H](NS(=O)(=O)c1ccc(Oc2ccc(F)cc2)cc1)C(=O)O [Example 8b, S--[2-(Aminocarbonyl)ethyl]--N--[4-(4-fluorophenoxy)benzenesulfonyl]-D-penicillamine]
– | – | 9.20 | 10.62 | Cc1cc(CSC(C)(C)[C@@H](NS(=O)(=O)c2ccc(Oc3ccc(F)cc3)cc2)C(=O)NO)no1 [Example 9c, 2(S)--N-hydroxy-3-methyl-3-(5-methylisoxazol-3-yl)methylsulfanyl-2-[(4-(4-fluorophenoxy)benzenesulfonyl)amino]butanamide]
– | – | 9.14 | 10.44 | Cc1ccc(Oc2ccc(S(=O)(=O)N[C@@H](C(=O)NO)C(C)(C)SCc3ccccn3)cc2)cc1 [Example 9g, 2(S)--N-hydroxy-3-methyl-3-(pyrid-2-yl)methylsulfanyl-2-[(4-(4-methylphenoxy)benzenesulfonyl)amino]butanamide]
– | – | 9.70 | 9.96 | Cn1ccnc1CSC(C)(C)[C@@H](NS(=O)(=O)c1ccc(Oc2ccc(Br)cc2)cc1)C(=O)NO [Example 9n, 2(S)--N-hydroxy-3-methyl-3-(1-methyl-1H-imidazol-2-yl)-methylsulfanyl-2-[(4-(4-bromophenoxy)benzenesulfonyl)amino]butanamide]
– | – | 7.94 | 9.49 | Cc1cc(CSC(C)(C)[C@@H](NS(=O)(=O)c2ccc(Oc3ccncc3)cc2)C(=O)NO)no1 [Example 10a, 2(S)--N-hydroxy-3-methyl-3-(5-methylisoxazol-3-yl)methylsulfanyl-2-[(4-(pyrid-4-yloxy)benzenesulfonyl)amino]butanamide]

— patent US5985900A, “Metalloproteinase inhibitors, pharmaceutical compositions containing them and their pharmaceutical uses” (Agouron Pharmaceuticals, Inc., priority 1998, dated 1999)
